In series [1] the test system is mip1^G651S and mip1^A692T yeast mutants, Δsml1. The series can be described thus: Small colony frequency in mip1 strains with or without SML1 deletion (mtDNA stability). To be noted: 32 μM. It is filed as cell-based, Saccharomyces cerevisiae. On the procedure: Deletion of the SML1 gene encoding the inhibitor of RNRI (ribonucleotide diphosphate reductase, enzyme limiting the synthesis pathway of dNTPs) is known to be a genetic suppressor of the instability of the mtDNA caused by mutations in the MIP1 gene (Wang P J, Chabes A, Casagrande R, Tian X C, Thelander L and Huffaker T C. (1997) Rnr4p a novel ribonucleotide reductase small-subunit protein. Mol Cell Biol, 17, 6114-6121).
The frequency of the small colonies was determined for the mip1^G651S and mip1^A692T strains, whether deleted or not from the SML1 gene and in the presence of 32 μM clofilium tosylate or DMSO.
From pre-cultures in selective medium (SC-TRP, 2% ethanol (v/v)) of mutated mip1 strains, 2.10^5 cells/mL were seeded in 2 mL of rich YPD medium in the presence of 32 μM clofilium tosylate or DMSO, then incubated at 28° C. for 24 hours. The cells were then diluted to have about 200 to 250 cells per dish and were spread on differential synthetic medium (SC-TRP, 0.3% glucose, 2% ethanol). The number of small colonies was calculated after 5 days of incubation at 28° C.

The test system of series [2] is complex I in neuronal cybrids derived from a MELAS patient (m.3243A>G tRNA^Leu mutation). As to the kind of experiment: Ratio of complex I/citrate synthase activities in MELAS neuronal cybrids. In kind it is cell-based, human. To be noted: 300 nM, 48 hours. On the procedure: The mutant MELAS neuronal transmitochondrial line, which is the result of the fusion of the immortalised neuoroblastoma parental line SHSY-5Y with fibroblasts carrying the mutation m.3243A>G, was created in the laboratory of Prof. Procaccio.
Neuronal cybrid lines carrying the MELAS mutation and the parental control line were grown in sterile culture flasks and incubated at 37° C. with 5% CO2 in a medium composed of DMEM with 1.5 g/L glucose, 2 mM L-glutamine and supplemented with 10% foetal bovine serum as well as uridine (5 μg/ml) and pyruvate (10 μg/mL). […]
The MELAS neuronal cybrid line carrying the mutation seemingly in the homoplasmic state (i.e. reaching almost 100% MELAS mutation) and the SHSY-5Y parental control line were used for measurements of enzyme activities. […] These cell pellets were then analysed by spectrophotometry with measurement of the different mitochondrial biochemical activities, particularly the activity of citrate synthase and the activity of complex I of the respiratory chain. […]
The enzymatic activities were measured according to the protocol described in Medjda et al, 2009 (Medja F, Allouche S, Frachon P, Jardel C, Malgat M, Mousson de Camaret B, Slama A, Lunardi J, Mazat J P, Lombès A. Development and implementation of standardized respiratory chain spectrophotometric assays for clinical diagnosis. Mitochondrion. 2009 September; 9(5):331-9).

Series [3] relates to fibroblasts from a patient with a mutation on each allele of the POLG gene. As to the kind of experiment: Amount of mtDNA (qPCR) in patient fibroblasts, cell growth conditions. In kind it is cell-based, human. To be noted: 2.5 μM, DMEM high glucose, harvested at 100% confluence. On the procedure:
Skin fibroblasts from the control and from the patient were cultured to 100% confluence in a complete Dulbecco's Modified Eagle Medium (DMEM) high glucose medium (4.5 g/L of D-glucose, 110 mg/L sodium pyruvate, 10% foetal bovine serum, 1% penicillin/streptomycin from the stock solution containing 10,000 I.U. penicillin and 10,000 μg/mL streptomycin) at 37° C. under 5% CO2. At confluence, the cultures were trypsinised and placed back in culture at 30% confluence in a complete DMEM high glucose medium supplemented with either 0.1% DMSO or with 2.5 μM clofilium tosylate. They were incubated at 37° C. under 5% CO2 and harvested at 100% confluence. The total fibroblast DNAs were extracted by the phenol-chloroform method, and the mtDNA and nuclear DNA were quantified by qPCR as described in Sarzi et al., 2007 (Sarzi, E., Bourdon, A., Chrétien, D., Zarhrate, M., Corcos, J., Slama, A., Cormier-Daire, V., De Lonlay, P., Munnich, A. and Rötig, A. (2007) Mitochondrial DNA Depletion is a Prevalent Cause of Multiple Respiratory Chain Deficiency in Childhood. J Pediatr, 105, 531-534).
On the technique in general: Quantitative PCR measures a nucleic acid by following its amplification.

Series [4] can be described thus: Maximum solubility in yeast culture. In kind it is physicochemical. To be noted: 28 °C; in YPD yeast culture; read-out: maximum concentration (maximum solubility). On the procedure: From o/n pre-culture in selective medium (SC-URA, 2% ethanol (v/v)), 50 mL of rich YPD medium (1% Yeast Extract, 0.5% Bacto Peptone, 2% Glucose) were seeded at a DO600 of 0.05/mL. The 50 mL of culture were distributed in a series of ten tubes on the basis of 2 mL of culture/tube, with 4 mL of culture being placed in the last tube. […] From this tube (tube 1), 2 mL of culture were placed into tube 2. Tube 2 contained 4 ml of culture and clofilium tosylate at a concentration of 256 μM. 2 mL of tube 2 were added to tube 3, and so on. Each tube contained the drug at a concentration equal to half that of the previous tube. Two controls were provided—without clofilium tosylate and with DMSO (the volume being the same as that used to dilute the clofilium tosylate). The cultures were incubated at 28° C. with stirring for 24 hours, and the optical density (DO600) was measured.

As for `CCCCCCC[N+](CC)(CC)CCCCc1ccc(Cl)cc1.Cc1ccc(S(=O)(=O)[O-])cc1` [clofilium tosylate], the “stability of the mtDNA, clofilium tosylate together with availability of dNTPs (SML1 deletion)” value in series [1] is “additive effect”. In addition, in series [2], the “activity of complex I (ratio complex I/citrate synthase)” value is “increased”. Besides, in series [3], the “amount of mtDNA, cell growth conditions” value is listed as “slightly increased”. Also, the solubility in series [4] was determined as 512 µM.
